The data set relates to human peripheral blood mononuclear cells (hPBMCs). The data set is described as follows: Cytotoxicity, MTT. It counts as cell-based. As for the experimental part: The cytotoxicity of PvAMP66 was assessed in vitro against human red blood cells (hRBCs) and human peripheral blood mononuclear cells (hPBMCs) using concentrations of 1.56–200 µM. At the highest concentration, PvAMP66 induced 60% hemolysis in human erythrocytes (Figure 3a), and a decrease in viability of approximately 40% in the hPBMCs (Figure 3b). […] Ratios between CC50 or HC50, and the IC50 values registered for the bacterial strains, indicate that PvAMP66 has higher selectivity for interacting with prokaryotic membranes (Table 4).
Ten milliliters of fresh blood was mixed with 10 mL of PBS pH 7.20 in 50 mL conical tubes. Then, 10 mL of Ficoll® density gradient media were placed in 50 mL conical tubes, and then the blood/PBS solution was gently poured over without disturbing the interface. The mixture was centrifuged at RT and 400× g for 30 min with the brake off (Universal 32 R, Hettich Group, Kirchlengern, Westphalia, Germany), and the upper plasma phase was removed and discarded. The leukocyte phase was gently removed from the conical tube, placed in a new 50 mL conical tube, and density gradient media was removed in two washings with 25 mL of PBS pH 7.20 at RT and 400× g for 10 min. Cells were then resuspended in 3 mL of RPMI media. Subsequently, 10 µL of this suspension was mixed with 90 µL of Trypan blue in a 0.50 mL polypropylene vial. The cell count and cell viability were determined in a Neubauer counting chamber. Then, cells were suspended to 3 × 10^5 cells/mL, ensuring that cell viability remained above 98%. All peptides were diluted in RPMI media to final concentrations ranging between 1.56 and 200 µM. Subsequently, 20 µL of each peptide solution was added in triplicate into 96-well plates, along with 80 µL of fresh RPMI media. For negative and positive cytotoxicity controls, six wells received 20 µL of PBS and 30% v/v H2O2, respectively. Blank wells without cells were also included. Next, 100 µL of a cell suspension 3 × 10^5 cells/mL was added to each well, and the plates were incubated for 24 h at 37 °C in a 5% CO2 atmosphere (Heratherm, ThermoFisher Scientific, Waltham, MA, USA). After 24 h, plates were centrifuged at RT and 1000× g for 10 min (Sorvall Legend XFR, ThermoFisher Scientific, Waltham, MA, USA). Then, 180 µL of the supernatant was collected, and 28 µL of a 4 mg/mL sterile MTT solution was added. The plates were then incubated for 4 h at 37 °C in a 5% CO2 atmosphere (Heratherm, ThermoFisher Scientific, Waltham, MA, USA). After the second incubation, 130 µL of DMSO was added to each well and plates were agitated at 50 rpm. The solubilized formazan was then measured at 570 nm using a Multiskan SkyHigh spectrophotometer (ThermoFisher Scientific, Waltham, MA, USA). All peptides were evaluated in three independent assays and the viability percentages were calculated as follows: Viability %=1−AbsPEPTIDE−Median AbsBLANK/Median AbsH2O2−Median AbsBLANK×100

Ends that are not written are not given here.

Consider WKKIKKFF-NH2 [PvAMP66], for which the “CC50 (Cytotoxic Concentration 50)” value (hPBMCs in RPMI, 24 h 37 °C 5% CO2, MTT 570 nm, 1.56–200 µM, logistic regression, 95% CI in parentheses, ND = above evaluated range) was 172.03 µM. Besides, for the setting “hPBMCs, highest concentration (200 µM), 24 h, MTT”, the decrease in viability entry was “approximately 40%”. This substance also displayed a CC50/IC50 (selectivity index vs IC50 E. coli ATCC 25922) of 4.49; a CC50/IC50 (selectivity index vs IC50 K. pneumoniae ATCC BAA-1705) of 3.78; a CC50/IC50 (selectivity index vs IC50 MDR K. pneumoniae) of 10.89; a CC50/IC50 (selectivity index vs IC50 P. aeruginosa ATCC 9027) of 13.58; a CC50/IC50 (selectivity index vs IC50 S. aureus ATCC 29213) of 6.24.

Values taken from publication PMC10812672, “Short Antimicrobial Peptide Derived from the Venom Gland Transcriptome of Pamphobeteus verdolaga Increases Gentamicin Susceptibility of Multidrug-Resistant Klebsiella pneumoniae” (Antibiotics, 2023).
